Laboratory results as given in US11325937B2, “Glycoside compound and preparation method therefor, composition, application, and intermediate” (SHANGHAI HUTCHISON PHARMACEUTICALS LIMITED, priority 2018, dated 2022).

Tested on: VEGF-A mRNA expression in macrophages (RAW264.7)
Assay: In vitro macrophage experiment: activity of compounds to promote VEGF-A mRNA expression (RT-qPCR)
Format: cell-based
Conditions: Mus musculus, RAW264.7 macrophages, 3 h, relative expression, no drug = 1, read-out: Expression level of VEGF-A mRNA; for fold induction at 500 µM: 0.5 mM; for fold induction at 1000 µM: 1 mM; for fold induction at 2000 µM: 2 mM; for fold induction at 3000 µM: 3 mM; for fold induction at 4000 µM: 4 mM
Method in brief: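 RAW264.7 macrophages were exposed to test compounds at various concentrations for 3 h at 37° C. VEGF-A mRNA was measured by SYBR Green RT-qPCR, normalized to β-Actin, and expressed as 2^−ΔΔCt relative to untreated cells (=1). Activity is the maximal fold induction, with ≥4 as hit criterion.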

Structure (SMILES): OC[C@H]1O[C@@H](OCCc2ccccc2)[C@H](O)[C@@H](O)[C@@H]1O [TG-055]
- fold induction at 500 µM: 6.36
- fold induction at 1000 µM: 2.11
- fold induction at 2000 µM: 4.44
- fold induction at 3000 µM: 3.81
- fold induction at 4000 µM: 6.11

Structure (SMILES): COc1ccc(CCCCO[C@@H]2O[C@H](CO)[C@@H](O)[C@H](O)[C@H]2O)cc1 [TG-028]
- fold induction at 500 µM: 0.79
- fold induction at 1000 µM: 0.39
- fold induction at 2000 µM: 6.77
- fold induction at 3000 µM: 13.4
- fold induction at 4000 µM: 4.23
